Data taken from paper PMC10599482 (Chemical Science, 2023).

Assay: CD spectroscopy, percent helicity
Assay type: physicochemical
Settings: 50.0% TFE aqueous solution, 0.1 mg/mL peptide, 20 °C, calculated from [θ]222

CC[C@H](C)[C@H](NC(=O)[C@H](C)NC(=O)[C@H](CCC(=O)O)NC(=O)[C@H](CCC(=O)O)NC(=O)[C@H](CC(C)C)NC(=O)[C@H](CCCCN)NC(=O)[C@H](CCCCN)NC(=O)[C@H](CCSC)NC(=O)[C@H](CCC(=O)O)NC(=O)[C@H](Cc1ccc(O)cc1)NC(=O)[C@H](CCC(=O)O)NC(=O)[C@H](CC(C)C)NC(=O)[C@H](CC(=O)O)NC(=O)[C@H](CC(C)C)NC(=O)[C@H](Cc1ccccc1)NC(=O)[C@@H](NC(=O)[C@@H](NC(=O)[C@H](CC(N)=O)NC(=O)[C@@H](NC(=O)[C@H](CCC(N)=O)NC(=O)[C@H](CC(=O)O)NC(=O)[C@H](CC(C)C)NC(=O)[C@H](CO)NC(C)=O)[C@@H](C)CC)C(C)C)[C@@H](C)O)C(=O)N[C@@H](CCCCN)C(=O)N[C@@H](CCCCN)C(=O)N[C@@H](CC(C)C)C(=O)N[C@@H](CCC(=O)O)C(=O)N[C@@H](CCC(=O)O)C(=O)N[C@@H](CO)C(=O)N[C@@H](Cc1ccc(O)cc1)C(=O)N[C@H](C(=O)N[C@@H](CC(=O)O)C(=O)N[C@@H](CC(C)C)C(=O)N[C@@H](CCCCN)C(=O)N[C@@H](CCC(=O)O)C(=O)N[C@@H](CC(C)C)C(N)=O)[C@@H](C)CC [EK1]
α-Helicity (%): 13.6%
